Measurements as given in patent publication US11613538B2, “Method of inhibiting or reducing a viral infection” (PTC Therapeutics, Inc., priority 2009, dated 2023).

Experiments:
Parainfluenza = Parainfluenza CPE protection assay in Vero cells; assay type: cell-based, parainfluenza virus
WNV = WNV CPE protection assay in Vero cells (MTS); assay type: cell-based, West Nile virus
Method: Antiviral activity of a Compound against WNV is tested in Vero cells by protection of virus induced cytopathic effects (i.e. cytoprotection measured as cell viability, IC50). The effect of a Compound on inhibition of virus induced cytopathic effects is determined using MTS (CellTiter) assay.

[1] = test system: protein expression in RCC lines 786-0, 769-P and A498; assay: Western blot of protein expression in panel of RCC lines (786-0, 769-P and A498) (FIG. 8); assay type: cell-based; details: monotherapy at different μM dose levels; in words

Question: Which IC50 (Parainfluenza; Parainfluenza, (−) RNA, Vero, CPE protection) does the source give for `COc1ccc([C@H]2c3[nH]c4ccc(Cl)cc4c3CCN2C(=O)Oc2ccc(Cl)cc2)cc1` (racemic) [Compound #10] here?
Answer: The IC50 was 0.029 µM.

Question: And the IC90 (Parainfluenza; Parainfluenza, Vero, CPE protection)?
Answer: The IC90 was 0.044 µM.

Question: And the “Activity against parainfluenza virus” value (Parainfluenza; in words)?
Answer: The value was “potent activity”.

Question: And the IC50 (WNV; West Nile virus, WNV, (+) RNA, Vero, CPE protection)?
Answer: The IC50 was 0.067 µM.

Question: And the IC90 (WNV; West Nile virus, WNV, Vero, CPE protection)?
Answer: The IC90 was 0.28 µM.

Question: What about the “Activity against West Nile virus (WNV)” value (WNV; in words) of the same molecule?
Answer: The value was “potent activity”.

Question: And the “Effect on protein expression (FIG. 8)” value [1]?
Answer: The value was “dose-dependent and depended on the RCC line used”.
